Assay results: US4196217A, “Hydroxylated amines with bacteriostatic activity” (priority 1978, dated 1980)
Several values for one entry are separate records, joined by “and”; a condition that tells them apart may be missing. Equal entries are not always repeated. Where two headings read alike, the source gives them in different places.

Key:
[1] = tested on: Proteus vulgaris; assay: bacteriostatic activity (MIC), Proteus vulgaris; assay type: cell-based; settings: Proteus vulgaris, 48 h, Table I, 37° C., read-out: MIC
Experimental: (§1) The medium containing the solution to be tested is inoculated in the form of three single striae with a 10^-5 times dilution of a bacterial culture aged 16 to 18 hours grown in salted peptone broth at a temperature of 37° C. After inoculation, the media are stored at 37° C. for 48 hours, after which the bacterial growth is inspected. The MIC (minimum inhibiting concentrations) are expressed in micrograms of pure product per cubic centimeter of gelose medium required for inhibiting the culture (μg/cc). The control substance used is benzalconium chloride.

[2] = tested on: Moraxella glucidolytica; assay: bacteriostatic activity (MIC), Moraxella glucidolytica; assay type: cell-based; settings: Moraxella, 48 h, Table I, 37° C., read-out: MIC
Experimental: as §1

[3] = tested on: Pseudomonas aeruginosa; assay: bacteriostatic activity (MIC), Pseudomonas aeruginosa; assay type: cell-based; settings: for MIC: Pseudomonas aeruginosa, 48 h
Experimental: (§2) The medium containing the solution to be tested is inoculated in the form of three single striae with a 10^-5 times dilution of a bacterial culture aged 16 to 18 hours grown in salted peptone broth at a temperature of 37° C.
(§3) After inoculation, the media are stored at 37° C. for 48 hours, after which the bacterial growth is inspected. The MIC (minimum inhibiting concentrations) are expressed in micrograms of pure product per cubic centimeter of gelose medium required for inhibiting the culture (μg/cc). The control substance used is benzalconium chloride.
(§4) Tests were also carried out to determine the bacteriostatic activity of other compounds according to the invention by the method described above and in comparison with known substances, in particular with benzalconium chloride (compound T in the Tables).

[4] = ocular irritation; assay type: in vivo; settings: 0.1 ml of a 0.5% solution
Experimental: The method used is the method described in the Official Journal of Apr. 21, 1971, page 3863, and comprises applying to the right eye of each animal 0.1 ml of a 0.5% solution. The general total of the results is 0 which confirms the high tolerance of the product mentioned above.

[5] = tested on: Pneumobacille; assay: bacteriostatic activity (MIC), Pneumobacille; assay type: cell-based; settings: 48 h, Table I, 37° C., read-out: MIC
Experimental: as §1

[6] = tested on: Pseudomonas aeruginosa; assay: bactericidal activity, Pseudomonas aeruginosa; assay type: cell-based; settings: Table II, 2 hours contact, laboratory temperature, read-out: MIC (bactericidal activity)
Experimental: (§5) Bactericidal activity is determined by the following methods: A titrate suspension of bacteria is brought into contact over a period of 2 hours at the temperature of the laboratory with increasing dilutions of the test product. The number of bacteria still alive are counted after passage through a filtering membrane.

[7] = tested on: Bacillus pyocyaneus; assay: MIC study in a solid medium on 35 strains of Bacillus pyocyaneus; assay type: cell-based; settings: Pseudomonas aeruginosa, majority of 35 strains, read-out: minimum inhibiting concentration
[8] = tested on: Escherichia coli; assay: bactericidal activity, Escherichia coli; assay type: cell-based; settings: Table II, 2 hours contact, laboratory temperature, read-out: MIC (bactericidal activity)
Experimental: as §5

[9] = aggressiveness to the skin by repeated application; assay type: in vivo
Description: The method used is the method described in the Official Journal of Apr. 28, 1971 for the analysis of cosmetics and beauty products, and comprises applying 0.5 cc of 2% solution over a period of 1 month to the two zones treated, one normal, the other raw, a control zone being reserved on the hindquarters of the animal.

[10] = tested on: Bacillus subtilis; assay: bacteriostatic activity (MIC), Bacillus subtilis; assay type: cell-based; settings: for MIC: Bacillus subtilis, 48 h
Experimental: as §2, §3, §4

[11] = tested on: spores of B.subtilis var. Niger; assay: sporostatic activity (a), Petri dish dilution; assay type: cell-based; settings: for number of colonies (average of 2 tests): approximately 200 spores
Experimental: (a) 1 cc of a suspension of spores of B.subtilis var. Niger containing approximately 200 spores is placed in one Petri dish, whilst 1 cc of a solution containing 3 g/100 cc of the product (mother solution) or of the same mother solution diluted to 1/10th, 1/100th, etc. up to 1/100,000th, are placed in other Petri dishes. Following the addition of a culture medium, the dishes are agitated, cooled and then placed in an oven. The number of colonies obtained are then determined.

[12] = tested on: Staphyloccus aureus; assay: bacteriostatic activity (MIC), Staphylococcus aureus; assay type: cell-based; settings: Staphylococcus aureus, 48 h
Experimental: as §2, §3, §4

[13] = acute toxicity, intragastric, rats; settings: rat, in vivo, po, both after 48 hours and after 14 days
Experimental: (§6) The LD50 was calculated by the graphic method of J. T. Lichtfield and F. Wilcoxon (J. Pharm. Exp. Ther. 1949, 96: 99-[…]).

[14] = tested on: Bacillus pyocyaneus; assay: in vitro MIC on 100 strains of Bacillus pyocyaneus; assay type: cell-based; settings: Pseudomonas aeruginosa, read-out: minimum inhibiting concentration
Experimental: In vitro tests on the activity of the compound of Example 1 were also carried out so as to determine the activity of that compound on Bacillus pyocyaneus. The results of determining the minimum inhibiting concentration on 100 different strains are as follows: […]

[15] = tested on: Serratia; assay: bacteriostatic activity (MIC), Serratia; assay type: cell-based; settings: Serratia, 48 h, Table I, 37° C., read-out: MIC
Experimental: as §1

[16] = acute toxicity, intragastric, mice; settings: mouse, in vivo, po, both after 48 hours and after 14 days
Experimental: as §6

[17] = tested on: M pyogenes aureus; assay: bactericidal activity, M pyogenes aureus; assay type: cell-based; settings: Table II, 2 hours contact, laboratory temperature; read-out: MIC (bactericidal activity)
Experimental: as §5

[18] = Table I, with 20% of serum, 37° C., 48 hours, read-out: MIC
[19] = Table I, without serum, 37° C., 48 hours, read-out: MIC
[20] = Table VI, bacteriostase containing 20% of serum, read-out: M.I.C.
[21] = Table VI, bacteriostase containing 20% of serum, hydrochloride

CCCCCCCCCCOCC(O)CN.Cl (stereo not shown) [Compound 1, 3-decyloxy-2-hydroxy-1-aminopropane hydrochloride]
MIC ([1]; with 20% of serum): 150 µg/mL | MIC ([1]; without serum): 40 µg/mL | MIC ([2]; with 20% of serum): 75 µg/mL | MIC ([2]; without serum): 40 µg/mL | MIC [3, 18]: 150 µg/mL | MIC [3, 19]: 40 µg/mL | MIC [3, 20]: 250 µg/mL | M.I.C. [3, 21]: 200 μg/cc and 400 μg/cc and 350 μg/cc | ocular irritation, general total of the results [4]: 0 | MIC ([5]; with 20% of serum): 75 µg/mL | MIC ([5]; without serum): 35 µg/mL | MBC [6]: 50 µg/mL | MIC [7]: 62.5 µg/mL | MBC [8]: 50 µg/mL | histological examination of skin ([9]; 0.5 cc of 2% solution over 1 month): did not reveal any significant modification | local tolerance (skin) ([9]; 0.5 cc of 2% solution over 1 month, normal and raw zones): Good local tolerance | haematological examination ([9]; blood from the ear vein on completion of the test): normal blood formula | MIC [10, 18]: 50 µg/mL | MIC [10, 19]: 30 µg/mL | MIC [10, 20]: 60 µg/mL | MIC ([10]; Table VI, bacteriostase without serum, read-out: M.I.C.): 15 µg/mL | M.I.C. [10, 21]: 50 μg/cc and 40 μg/cc | number of colonies (average of 2 tests) ([11]; 0 dilutions to 1/10 (mother solution 3 g/100 cc)): 0 | number of colonies (average of 2 tests) ([11]; 1 dilution to 1/10 of mother solution 3 g/100 cc): 0 | number of colonies (average of 2 tests) ([11]; 2 dilutions to 1/10 of mother solution 3 g/100 cc): 18 | number of colonies (average of 2 tests) ([11]; 3 dilutions to 1/10 of mother solution 3 g/100 cc): > 200 | number of colonies (average of 2 tests) ([11]; 4 dilutions to 1/10 of mother solution 3 g/100 cc): > 200 | number of colonies (average of 2 tests) ([11]; 5 dilutions to 1/10 of mother solution 3 g/100 cc): > 200 | MIC ([11]; Bacillus subtilis, taking into account the dilution by the gelose culture medium, from Table III, read-out: concentration still showing sporostatic activity): 20 µg/mL | MIC [12, 18]: 120 µg/mL | MIC [12, 19]: 60 µg/mL | MIC [12, 20]: 75 µg/mL | LD50 [13]: 1300 mg/kg | MIC ([14]; 10 of 100 strains): 100 µg/mL | MIC ([14]; 20 of 100 strains): 25 µg/mL | MIC ([14]; 70 of 100 strains): 50 µg/mL | MIC ([15]; with 20% of serum): 75 µg/mL | MIC ([15]; without serum): 20 µg/mL | LD50 [16]: 1300 mg/kg | MBC [17]: 100 µg/mL
